Results published in patent US20090123419A1, “TREATMENT OF UTERINE CANCER AND OVARIAN CANCER WITH A PARP INHIBITOR ALONE OR IN COMBINATION WITH ANTI-TUMOR AGENTS” (BiPar Sciences, priority 2007, published 2009).

Columns and labels:
[1] = test system: cervical adenocarcinoma Hela cells; test: BrdU cell proliferation assay in Hela cells; format: cell-based, human; conditions: BA at various concentrations, FIG. 6
Protocol: The effect of BA on the proliferation of cervical adenocarcinoma Hela cells is examined. Cell proliferation is assessed by BrdU assay as described herein.
Hela cell is an immortal cell line used in medical research. The cell line was derived from cervical cancer cells. HeLa S3 is a clonal derivative of the parent HeLa line. The HeLa S3 clone has been very useful in the clonal analysis of mammalian cell populations relating to chromosomal variation, cell nutrition, and plaque-forming ability. HeLa cells have been reported to contain human papilloma virus 18 (HPV-18) sequences. Cells are cultured according to the standard protocol (ATCC) in the art. Briefly: 1. Remove and discard culture medium. 2. […] 3. Add 2.0 to 3.0 ml of Trypsin-EDTA solution to flask and observe cells under an inverted microscope until cell layer is dispersed (usually within 5 to 15 minutes). Cells that are difficult to detach may be placed at 37° C. to facilitate dispersal. 4. Add 6.0 to 8.0 ml of complete growth medium and aspirate cells by gently pipetting. 5. Add appropriate aliquots of the cell suspension to new culture vessels. 6. Incubate cultures at 37° C.
BrdU assay is well known in the art. […] The immune complexes are detected by the subsequent substrate reaction via chemiluminescent detection (based on Cell Proliferation ELISA, BrdU Chemiluminescence Protocol from Roche). […]

PARP = target: T1, PARP (Homo sapiens, UniProt P09874); test: PARP activity assay in peripheral blood mononuclear cells (PBMCs) from patients; format: in vivo; conditions: for PARP inhibition in PBMCs: after multiple dosing with BA doses of 2.8 mg/kg or higher, FIG. 5, 2.8 mg/kg
T1 construct: endogenous in cells; host or cells: peripheral blood mononuclear cells from patients dosed with BA
Protocol: Whole blood is collected into EDTA vacutainers and human PBMCs are obtained by BD Vacutainer™ CPT™ Cell Preparation kit according to the manufacturer's instructions (BD Vacutainer™, REF 362760). Tumor samples are collected in a sterile container and placed immediately on ice. Within 30 minutes, tumor samples are snap-frozen in liquid nitrogen and stored at −80° C. until homogenized for analysis. The specimen is defrosted on ice and the wet weight is documented. The tissue is homogenized using isotonic buffer [7 mmol/L HEPES, 26 mmol/L KCl, 0.1 mmol/L dextran, 0.4 mmol/L EGTA, 0.5 mmol/L MgCl2, 45 mmol/L sucrose (pH 7.8)]. The homogenate is kept on ice throughout the process, and homogenization is done in 10-second bursts to prevent undue warming of the sample. Unless assayed on the day of homogenization, samples are refrozen to −80° C. and stored at this temperature until analyzed.
Cell preparations are defrosted rapidly at room temperature and washed twice in ice-cold PBS. […] Maximally stimulated PARP activity is measured in replicate samples of 20,000 cells in a reaction mixture containing […] NAD+ and 10 mg/mL oligonucleotide in a reaction buffer of 100 mmol/L Tris-HCl, 120 mmol/L MgCl2 (pH 7.8) in a final volume of […] as described previously (24) at 26° C. in an oscillating water bath. […] Purified PAR standards are loaded onto each membrane (0-25 pmol monomer equivalent) to generate a standard curve and allow quantification. […] Chemiluminesence detected during a 5-minute exposure is measured using a Fuji LAS3000 UV Illuminator (Raytek, Sheffield, United Kingdom) and digitized using the imaging software (Fuji LAS Image version 1.1, Raytek). The acquired image is analyzed using Aida Image Analyzer (version 3.28.001), and results are expressed in LAU/mm2. Three background areas on the exposed blot are measured and the mean of the background signal from the membrane is subtracted from all results. The PAR polymer standard curve is analyzed using an unweighted one-site binding nonlinear regression model and unknowns read off the standard curve so generated. […]

T1 sequence (P09874 whole entry): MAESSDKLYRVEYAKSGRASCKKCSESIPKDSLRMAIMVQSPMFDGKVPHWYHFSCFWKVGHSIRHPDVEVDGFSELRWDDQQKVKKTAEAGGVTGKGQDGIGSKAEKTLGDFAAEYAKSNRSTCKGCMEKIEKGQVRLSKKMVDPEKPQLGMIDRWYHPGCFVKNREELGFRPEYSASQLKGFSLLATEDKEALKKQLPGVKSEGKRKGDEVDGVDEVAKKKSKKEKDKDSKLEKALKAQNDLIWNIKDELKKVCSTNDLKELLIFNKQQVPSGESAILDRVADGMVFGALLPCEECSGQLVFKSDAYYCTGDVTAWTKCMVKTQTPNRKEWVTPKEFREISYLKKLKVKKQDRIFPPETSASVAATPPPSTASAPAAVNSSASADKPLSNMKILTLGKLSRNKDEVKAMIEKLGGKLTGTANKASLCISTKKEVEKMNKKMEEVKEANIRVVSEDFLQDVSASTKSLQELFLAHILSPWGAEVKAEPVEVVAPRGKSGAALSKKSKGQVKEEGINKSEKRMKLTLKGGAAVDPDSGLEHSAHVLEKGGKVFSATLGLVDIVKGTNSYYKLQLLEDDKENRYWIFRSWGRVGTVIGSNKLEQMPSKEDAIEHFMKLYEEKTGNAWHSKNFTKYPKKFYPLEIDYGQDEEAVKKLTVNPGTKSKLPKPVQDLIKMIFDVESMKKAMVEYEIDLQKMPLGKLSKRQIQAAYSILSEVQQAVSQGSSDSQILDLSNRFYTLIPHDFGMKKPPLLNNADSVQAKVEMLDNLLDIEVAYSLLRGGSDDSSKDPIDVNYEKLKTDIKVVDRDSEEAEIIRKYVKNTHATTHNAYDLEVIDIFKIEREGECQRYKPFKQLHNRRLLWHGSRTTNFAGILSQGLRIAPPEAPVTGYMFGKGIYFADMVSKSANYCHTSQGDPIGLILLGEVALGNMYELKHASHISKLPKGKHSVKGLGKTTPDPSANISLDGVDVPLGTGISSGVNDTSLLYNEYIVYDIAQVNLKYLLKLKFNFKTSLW

In the case of `NC(=O)c1ccc(I)c([N+](=O)[O-])c1` [BA, 4-iodo-3-nitrobenzamide], the “proliferation of cervical adenocarcinoma Hela cells” value [1] is reported as “inhibits proliferation”, the “PARP inhibition in PBMCs” value (PARP) is reported as “significant and prolonged PARP inhibition” and the “PARP inhibition in PBMCs” value (PARP; listed as 4-iodo-3-nitrobenzamide) is reported as “PARP inhibition”. The “biologically relevant dose that elicits significant and sustained PARP inhibition” value (PARP; at effective preclinical blood concentrations) was 2.8 mg/kg.
